Experimental data as given in ChEMBL document CHEMBL1201862, “PubChem BioAssay data set” (2004).
Active and inactive are the calls of the source.

Legend:
[1] = molecular target: T1, Tyrosine-protein phosphatase non-receptor type 22 (Homo sapiens, UniProt Q9Y2R2); test: SAR LYP1 Fluorescent Assay using OMFP substrate for In Vitro dose response studies - Set 3. [Related pubchem assays (depositor defined):AID1779, AID1784, AID2140, AID2686]; type: functional
T1 sequence (Q9Y2R2 whole entry): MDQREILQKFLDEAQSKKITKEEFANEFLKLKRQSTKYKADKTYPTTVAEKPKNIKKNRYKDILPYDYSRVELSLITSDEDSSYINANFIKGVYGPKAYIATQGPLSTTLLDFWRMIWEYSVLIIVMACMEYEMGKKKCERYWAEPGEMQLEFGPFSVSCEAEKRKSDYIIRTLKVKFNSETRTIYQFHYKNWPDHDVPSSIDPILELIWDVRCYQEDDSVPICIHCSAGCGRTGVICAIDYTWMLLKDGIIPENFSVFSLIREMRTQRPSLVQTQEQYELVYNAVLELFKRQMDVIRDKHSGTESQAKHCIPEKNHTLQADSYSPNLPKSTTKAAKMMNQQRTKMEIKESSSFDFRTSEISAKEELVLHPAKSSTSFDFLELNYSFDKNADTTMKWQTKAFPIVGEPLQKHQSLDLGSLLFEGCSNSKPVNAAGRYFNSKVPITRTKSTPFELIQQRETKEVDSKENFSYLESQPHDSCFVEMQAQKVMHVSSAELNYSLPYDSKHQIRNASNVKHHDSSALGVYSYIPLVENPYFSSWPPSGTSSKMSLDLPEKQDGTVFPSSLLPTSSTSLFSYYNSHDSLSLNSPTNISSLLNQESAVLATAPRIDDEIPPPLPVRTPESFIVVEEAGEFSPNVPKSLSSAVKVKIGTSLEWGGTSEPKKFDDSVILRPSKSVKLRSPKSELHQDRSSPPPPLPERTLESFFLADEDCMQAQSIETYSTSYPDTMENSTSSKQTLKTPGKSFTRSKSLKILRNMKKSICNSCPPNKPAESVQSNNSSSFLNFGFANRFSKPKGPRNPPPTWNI

[2] = molecular target: Tyrosine-protein phosphatase non-receptor type 12 (Homo sapiens, UniProt Q05209); test: SAR Selectivity Analysis of small molecule inhibitors of PEST using pCAP in a fluorescence assay. [Related pubchem assays (depositor defined):AID1779, AID1784, AID2135]; type: functional
[3] = molecular target: T1, Tyrosine-protein phosphatase non-receptor type 22; test: SAR LYP1 Fluorescent Assay using OMFP substrate for In Vitro dose response studies - Set 2. [Related pubchem assays (depositor defined):AID1779, AID1784, AID2140, AID449726, AID488869]; type: functional
[4] = molecular target: T2, Tyrosine-protein phosphatase non-receptor type 7 (Homo sapiens, UniProt P35236); test: inhibition of hematopoietic tyrosine phosphatase HePTP – biochemical, set 2, SAR follow-up (AID 449736); type: functional
T2 sequence (P35236 whole entry): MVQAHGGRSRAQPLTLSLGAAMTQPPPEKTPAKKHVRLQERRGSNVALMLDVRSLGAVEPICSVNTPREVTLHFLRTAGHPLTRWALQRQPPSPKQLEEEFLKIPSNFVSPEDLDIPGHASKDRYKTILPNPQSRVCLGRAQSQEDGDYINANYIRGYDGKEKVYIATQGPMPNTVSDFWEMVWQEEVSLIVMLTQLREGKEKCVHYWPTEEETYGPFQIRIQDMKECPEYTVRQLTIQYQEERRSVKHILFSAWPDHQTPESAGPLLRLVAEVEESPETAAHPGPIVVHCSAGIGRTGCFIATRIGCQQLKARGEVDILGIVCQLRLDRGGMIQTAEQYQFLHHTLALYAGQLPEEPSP

[5] = molecular target: T1, Tyrosine-protein phosphatase non-receptor type 22; test: inhibition of lymphoid tyrosine phosphatase LYP – biochemical, pCAP fluorogenic substrate, fluorescence, set 3, SAR follow-up (AID 449727); type: functional
[6] = molecular target: T1, Tyrosine-protein phosphatase non-receptor type 22; test: SAR LYP1 Fluorescent Assay using pCAP substrate for In Vitro dose response studies - Set 2. [Related pubchem assays (depositor defined):AID1779, AID1784, AID2135, AID449727]; type: functional
[7] = molecular target: Delta-type opioid receptor (Homo sapiens, UniProt P41143); test: SAR Analysis of Antagonists of the DOR Receptor using an Image-Based Assay - Set 3. [Related pubchem assays (depositor defined):AID1777, AID1785]; type: functional;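 further: U2OS cells expressing DOR1 and beta-arrestin GFP stimulated with 100 nM SNC80; imaging of GFP-tagged beta-arrestin moving into spots after receptor activation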
[8] = molecular target: T3, Kappa-type opioid receptor (Homo sapiens, UniProt P41145); test: SAR analysis of small molecule agonists of the kappa opioid receptor via a luminescent beta-arrestin assay - Set 3. [Related pubchem assays (depositor defined):AID1777, AID1785, AID1786, AID1966, AID2133, AID2136, AID2284, AID2500]; type: functional
[9] = molecular target: T3, Kappa-type opioid receptor; test: SAR analysis of Antagonists of the Kappa Opioid Receptor (KOR) using an Image-Based Assay - Set 4. [Related pubchem assays (depositor defined):AID1777, AID1785]; type: functional
[10] = molecular target: Mu-type opioid receptor (Homo sapiens, UniProt P35372); test: SAR Analysis of Antagonists of the MOR Receptor using an Image-Based Assay - Set 3. [Related pubchem assays (depositor defined):AID1777, AID1785, AID1786, AID1966, AID2133, AID2136, AID2284, AID2285, AID2420]; type: functional
[11] = molecular target: T4, Cannabinoid receptor 1 (Homo sapiens, UniProt P21554); test: SAR analysis of agonists of the Cannabinoid Receptor 1 using an Image-Based Assay - Set 2. [Related pubchem assays (depositor defined):AID2013, AID2026]; type: functional
[12] = molecular target: T5, Streptokinase A (Streptococcus pyogenes serotype M1, UniProt P10520); test: viability-normalized secreted streptokinase activity reduction – plasminogen activation absorbance, OD405, dose response (AID 1914); type: functional, Streptococcus pyogenes M1 GAS;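 further: secreted streptokinase activity via plasminogen activation per viability signal from cell pellet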
T5 sequence (P10520 whole entry): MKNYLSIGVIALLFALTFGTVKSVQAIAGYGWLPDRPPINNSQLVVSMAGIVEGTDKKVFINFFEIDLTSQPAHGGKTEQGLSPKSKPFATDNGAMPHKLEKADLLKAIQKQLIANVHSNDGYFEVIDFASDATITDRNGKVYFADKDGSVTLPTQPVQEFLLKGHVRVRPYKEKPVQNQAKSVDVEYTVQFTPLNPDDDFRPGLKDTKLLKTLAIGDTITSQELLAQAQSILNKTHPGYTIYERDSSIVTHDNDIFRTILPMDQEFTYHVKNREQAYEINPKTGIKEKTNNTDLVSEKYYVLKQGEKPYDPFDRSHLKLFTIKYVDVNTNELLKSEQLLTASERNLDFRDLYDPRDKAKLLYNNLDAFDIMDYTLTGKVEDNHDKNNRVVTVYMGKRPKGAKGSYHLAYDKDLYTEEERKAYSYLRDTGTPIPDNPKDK

[13] = molecular target: T6, G-protein coupled receptor 35 (Homo sapiens, UniProt Q9HC97); test: SAR analysis of Agonists of the GPR35 Receptor using an Image-Based Assay - Set 2. [Related pubchem assays (depositor defined):AID2013, AID2026]; type: functional
[14] = molecular target: T4, Cannabinoid receptor 1; test: SAR analysis of antagonists of the Cannabinoid Receptor 1 using an Image-Based Assay - Set 2. [Related pubchem assays (depositor defined):AID2013, AID2026]; type: functional
[15] = molecular target: T7, G-protein coupled receptor 55 (Homo sapiens, UniProt Q9Y2T6); test: inhibition of LPI-stimulated GPR55 beta-arrestin translocation – imaging, U2OS, beta-arrestin-GFP, LPI agonist, primary screen (AID 2013); type: functional;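 further: antagonist potency measured as reduced agonist-driven arrestin aggregation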
[16] = molecular target: T7, G-protein coupled receptor 55; test: blockade of LPI-induced GPR55 arrestin translocation – imaging, U2OS, beta-arrestin-GFP, LPI agonist, set 2, SAR follow-up (AID 2820); type: functional
[17] = molecular target: T8, Cannabinoid receptor 2 (Homo sapiens, UniProt P34972); test: SAR analysis of antagonists of the Cannabinoid Receptor 2 using an Image-Based Assay. [Related pubchem assays (depositor defined):AID2013, AID2026]; type: functional
[18] = molecular target: T8, Cannabinoid receptor 2; test: SAR analysis of agonists of the Cannabinoid Receptor 2 using an Image-Based Assay. [Related pubchem assays (depositor defined):AID2013, AID2026]; type: functional
[19] = molecular target: T6, G-protein coupled receptor 35; test: SAR analysis of Antagonists of the GPR35 Receptor using an Image-Based Assay - Set 3. [Related pubchem assays (depositor defined):AID2013, AID2026]; type: functional
[20] = molecular target: Intestinal-type alkaline phosphatase (Homo sapiens, UniProt P09923); test: activation of human intestinal alkaline phosphatase – biochemical, dose response (AID 488873); type: functional
[21] = molecular target: Eukaryotic translation initiation factor 4H (Homo sapiens, UniProt Q15056); test: eIF4H binding inhibition – biochemical, uHTS, fluorescence polarization, translation initiation inhibitor project, primary screen (AID 2012)
[22] = molecular target: T9, Alkaline phosphatase, tissue-nonspecific isozyme (Homo sapiens, UniProt P05186); test: activation of tissue-nonspecific alkaline phosphatase – biochemical, TNAP isozyme, mouse IAP uHTS hits, selectivity assay for mouse IAP activator project, dose response (AID 488880); type: functional
T9 sequence (P05186 whole entry): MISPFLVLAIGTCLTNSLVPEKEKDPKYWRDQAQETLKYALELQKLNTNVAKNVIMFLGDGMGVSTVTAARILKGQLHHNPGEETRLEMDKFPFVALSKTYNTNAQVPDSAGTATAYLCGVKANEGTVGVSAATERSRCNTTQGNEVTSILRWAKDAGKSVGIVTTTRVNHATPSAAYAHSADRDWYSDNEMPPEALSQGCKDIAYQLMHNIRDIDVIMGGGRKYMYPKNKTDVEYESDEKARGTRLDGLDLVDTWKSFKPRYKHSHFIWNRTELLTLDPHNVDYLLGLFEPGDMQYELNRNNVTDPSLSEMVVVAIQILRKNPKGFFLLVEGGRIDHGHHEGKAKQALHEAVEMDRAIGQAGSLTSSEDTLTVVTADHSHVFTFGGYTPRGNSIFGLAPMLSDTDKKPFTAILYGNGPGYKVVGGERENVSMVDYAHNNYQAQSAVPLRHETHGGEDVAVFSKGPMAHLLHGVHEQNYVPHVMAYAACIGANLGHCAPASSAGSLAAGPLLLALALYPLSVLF

[23] = molecular target: T10, Caspase-6 (Homo sapiens, UniProt P55212); test: inhibition of CASP6 peptide cleavage – biochemical, VEID-R110 fluorescence, cherry-pick, dose response (AID 720632)
T10 sequence (P55212 whole entry): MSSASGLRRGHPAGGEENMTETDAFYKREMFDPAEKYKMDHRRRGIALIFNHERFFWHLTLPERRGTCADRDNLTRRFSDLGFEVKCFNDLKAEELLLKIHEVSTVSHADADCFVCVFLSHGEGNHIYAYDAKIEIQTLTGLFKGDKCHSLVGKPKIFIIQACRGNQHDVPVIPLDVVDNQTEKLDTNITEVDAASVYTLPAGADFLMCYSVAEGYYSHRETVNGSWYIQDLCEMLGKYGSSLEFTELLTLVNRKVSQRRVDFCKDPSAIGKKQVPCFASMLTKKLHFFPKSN

[24] = molecular target: Intestinal-type alkaline phosphatase (Mus musculus, UniProt P24822); test: mouse intestinal alkaline phosphatase activators, dose response, biochemical, luminescence, uHTS hits (AID 488783); type: functional
[25] = molecular target: Ras and Rab interactor 1/Tyrosine-protein kinase ABL1 (Homo sapiens, UniProt P00519+Q13671); type: functional;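 further: biochemical TR-FRET dose-response test measuring inhibition of binding between Rin1 and Abl proteins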
[26] = molecular target: Polyadenylate-binding protein 1 (Homo sapiens, UniProt P11940); test: blockers of PABP interaction with poly(A) – biochemical, fluorescence polarization, […] (AID 2014)
[27] = molecular target: Caspase-7 (Homo sapiens, UniProt P55210); test: caspase-7 enzyme inhibition, selectivity check – biochemical, DEVD-R110 fluorescence, cherry-pick, selectivity assay for caspase-6 inhibitor project, dose response (AID 743295); type: functional
[28] = molecular target: Albumin (Bos taurus, UniProt P02769); test: Counterscreen for inhibitors of T-cell receptor (TCR)-CD3 interaction: Fluorescence-based biochemical high throughput dose response assay to identify inhibitors of T-cell receptor (TCR)-CD3 interaction using a TAMRA-labeled BSA probe.; type: functional
[29] = molecular target: Induced myeloid leukemia cell differentiation protein Mcl-1 (Homo sapiens, UniProt Q07820); type: functional
[30] = molecular target: Large T antigen (Simian virus 40, UniProt P03070); type: functional, Betapolyomavirus macacae;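 further: Confirmatory-stage PubChem screen for compounds that inhibit SV40 T antigen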

T3 sequence (P41145 whole entry): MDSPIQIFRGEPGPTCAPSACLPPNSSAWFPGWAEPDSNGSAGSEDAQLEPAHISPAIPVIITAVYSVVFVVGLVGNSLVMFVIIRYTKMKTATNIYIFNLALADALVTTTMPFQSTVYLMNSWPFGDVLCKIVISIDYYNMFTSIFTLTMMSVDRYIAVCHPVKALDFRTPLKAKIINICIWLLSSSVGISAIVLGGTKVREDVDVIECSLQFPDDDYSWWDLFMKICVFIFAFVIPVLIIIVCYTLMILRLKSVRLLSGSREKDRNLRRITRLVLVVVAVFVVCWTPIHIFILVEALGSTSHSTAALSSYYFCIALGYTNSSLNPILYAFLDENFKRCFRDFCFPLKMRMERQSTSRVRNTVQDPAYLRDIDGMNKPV
T7 sequence (Q9Y2T6 whole entry): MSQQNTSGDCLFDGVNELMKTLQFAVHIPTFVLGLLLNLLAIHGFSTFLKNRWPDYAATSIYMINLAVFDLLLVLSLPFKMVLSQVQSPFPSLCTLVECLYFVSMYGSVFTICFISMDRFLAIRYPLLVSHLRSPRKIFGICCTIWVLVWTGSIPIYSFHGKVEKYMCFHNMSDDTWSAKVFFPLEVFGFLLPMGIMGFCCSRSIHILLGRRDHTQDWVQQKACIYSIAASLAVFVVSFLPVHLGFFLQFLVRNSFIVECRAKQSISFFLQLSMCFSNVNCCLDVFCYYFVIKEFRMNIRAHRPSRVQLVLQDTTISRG
T6 sequence (Q9HC97 whole entry): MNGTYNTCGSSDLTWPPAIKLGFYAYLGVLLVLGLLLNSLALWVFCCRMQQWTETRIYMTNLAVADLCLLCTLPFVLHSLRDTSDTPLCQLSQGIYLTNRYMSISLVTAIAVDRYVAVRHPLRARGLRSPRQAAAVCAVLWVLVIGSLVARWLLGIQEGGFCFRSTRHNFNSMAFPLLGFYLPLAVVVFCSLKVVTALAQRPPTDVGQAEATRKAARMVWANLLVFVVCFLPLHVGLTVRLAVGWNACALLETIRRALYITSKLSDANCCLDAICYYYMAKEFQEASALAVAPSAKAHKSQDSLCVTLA
T8 sequence (P34972 whole entry): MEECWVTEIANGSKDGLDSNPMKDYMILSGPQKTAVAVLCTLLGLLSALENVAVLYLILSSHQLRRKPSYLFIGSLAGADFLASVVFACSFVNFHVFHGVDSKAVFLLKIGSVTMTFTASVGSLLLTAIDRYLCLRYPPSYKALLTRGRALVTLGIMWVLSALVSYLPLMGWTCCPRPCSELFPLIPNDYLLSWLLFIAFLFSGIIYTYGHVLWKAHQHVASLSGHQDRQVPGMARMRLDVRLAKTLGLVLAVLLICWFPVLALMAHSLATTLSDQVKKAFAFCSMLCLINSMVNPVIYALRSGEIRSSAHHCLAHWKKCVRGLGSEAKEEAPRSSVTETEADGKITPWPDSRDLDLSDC
T4 sequence (P21554 whole entry): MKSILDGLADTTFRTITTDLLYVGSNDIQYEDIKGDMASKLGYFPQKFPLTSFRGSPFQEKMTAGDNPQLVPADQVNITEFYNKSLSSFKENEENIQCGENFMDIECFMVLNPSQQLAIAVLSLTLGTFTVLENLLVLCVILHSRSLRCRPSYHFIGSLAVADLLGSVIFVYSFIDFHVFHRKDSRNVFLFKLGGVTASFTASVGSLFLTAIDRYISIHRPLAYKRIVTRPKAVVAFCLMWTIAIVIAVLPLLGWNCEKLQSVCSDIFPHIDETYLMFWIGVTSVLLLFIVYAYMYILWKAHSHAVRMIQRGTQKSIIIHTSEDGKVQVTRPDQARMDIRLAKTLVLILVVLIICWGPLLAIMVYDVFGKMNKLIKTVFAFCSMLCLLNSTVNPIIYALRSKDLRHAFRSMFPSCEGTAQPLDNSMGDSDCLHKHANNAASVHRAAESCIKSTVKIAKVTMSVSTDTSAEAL
Chain of Mu-type opioid receptor (P35372 whole entry): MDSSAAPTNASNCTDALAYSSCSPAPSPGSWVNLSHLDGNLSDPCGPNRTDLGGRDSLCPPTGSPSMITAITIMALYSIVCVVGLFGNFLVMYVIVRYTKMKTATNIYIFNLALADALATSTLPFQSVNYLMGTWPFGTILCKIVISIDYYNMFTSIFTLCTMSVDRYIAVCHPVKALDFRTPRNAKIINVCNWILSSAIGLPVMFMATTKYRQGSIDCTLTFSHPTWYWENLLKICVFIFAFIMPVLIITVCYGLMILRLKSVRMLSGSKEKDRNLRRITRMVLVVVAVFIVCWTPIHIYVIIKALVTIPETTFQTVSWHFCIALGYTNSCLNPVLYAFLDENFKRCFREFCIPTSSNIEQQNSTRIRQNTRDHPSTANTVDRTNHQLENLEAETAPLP
Chain of Caspase-7 (P55210 24-198 limits assumed): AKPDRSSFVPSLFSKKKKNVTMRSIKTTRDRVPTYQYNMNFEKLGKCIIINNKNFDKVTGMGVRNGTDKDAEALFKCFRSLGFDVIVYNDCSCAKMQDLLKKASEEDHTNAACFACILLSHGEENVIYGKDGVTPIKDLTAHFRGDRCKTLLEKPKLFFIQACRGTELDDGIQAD
Chain of Caspase-7 (P55210 207-303 limits assumed): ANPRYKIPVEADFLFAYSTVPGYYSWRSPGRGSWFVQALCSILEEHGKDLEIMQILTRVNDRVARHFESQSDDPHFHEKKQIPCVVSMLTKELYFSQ
Chain of Polyadenylate-binding protein 1 (P11940 whole entry): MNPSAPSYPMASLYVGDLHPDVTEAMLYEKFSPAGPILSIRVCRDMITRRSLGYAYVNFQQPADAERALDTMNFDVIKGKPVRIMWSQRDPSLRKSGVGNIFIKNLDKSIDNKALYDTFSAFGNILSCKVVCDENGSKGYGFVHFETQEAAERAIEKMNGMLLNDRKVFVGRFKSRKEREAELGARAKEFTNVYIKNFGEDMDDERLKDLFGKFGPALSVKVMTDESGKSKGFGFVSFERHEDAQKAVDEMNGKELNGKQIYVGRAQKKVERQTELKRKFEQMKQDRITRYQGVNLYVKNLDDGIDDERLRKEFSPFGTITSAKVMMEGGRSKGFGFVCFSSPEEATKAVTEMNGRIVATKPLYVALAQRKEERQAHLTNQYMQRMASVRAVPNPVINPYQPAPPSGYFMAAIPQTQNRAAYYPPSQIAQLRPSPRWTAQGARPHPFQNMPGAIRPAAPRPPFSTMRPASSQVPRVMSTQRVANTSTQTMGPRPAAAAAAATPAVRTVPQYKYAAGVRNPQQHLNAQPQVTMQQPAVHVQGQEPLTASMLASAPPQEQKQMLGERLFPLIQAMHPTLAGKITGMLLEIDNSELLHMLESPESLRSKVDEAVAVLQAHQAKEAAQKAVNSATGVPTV
Chain of Intestinal-type alkaline phosphatase (Homo sapiens, UniProt P09923) (P09923 whole entry): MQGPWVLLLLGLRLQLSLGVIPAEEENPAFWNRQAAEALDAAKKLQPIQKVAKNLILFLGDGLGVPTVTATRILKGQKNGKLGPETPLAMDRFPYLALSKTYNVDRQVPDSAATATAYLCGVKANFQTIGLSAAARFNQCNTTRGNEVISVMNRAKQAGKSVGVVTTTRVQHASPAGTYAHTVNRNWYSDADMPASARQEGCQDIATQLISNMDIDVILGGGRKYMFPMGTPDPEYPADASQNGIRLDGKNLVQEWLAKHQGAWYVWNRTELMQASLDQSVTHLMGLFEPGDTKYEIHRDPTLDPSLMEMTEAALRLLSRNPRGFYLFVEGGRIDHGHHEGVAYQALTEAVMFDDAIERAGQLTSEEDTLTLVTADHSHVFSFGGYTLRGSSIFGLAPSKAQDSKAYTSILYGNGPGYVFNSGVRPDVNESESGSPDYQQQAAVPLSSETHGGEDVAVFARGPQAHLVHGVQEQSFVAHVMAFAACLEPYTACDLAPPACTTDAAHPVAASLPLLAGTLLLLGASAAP
Chain of Albumin (P02769 whole entry): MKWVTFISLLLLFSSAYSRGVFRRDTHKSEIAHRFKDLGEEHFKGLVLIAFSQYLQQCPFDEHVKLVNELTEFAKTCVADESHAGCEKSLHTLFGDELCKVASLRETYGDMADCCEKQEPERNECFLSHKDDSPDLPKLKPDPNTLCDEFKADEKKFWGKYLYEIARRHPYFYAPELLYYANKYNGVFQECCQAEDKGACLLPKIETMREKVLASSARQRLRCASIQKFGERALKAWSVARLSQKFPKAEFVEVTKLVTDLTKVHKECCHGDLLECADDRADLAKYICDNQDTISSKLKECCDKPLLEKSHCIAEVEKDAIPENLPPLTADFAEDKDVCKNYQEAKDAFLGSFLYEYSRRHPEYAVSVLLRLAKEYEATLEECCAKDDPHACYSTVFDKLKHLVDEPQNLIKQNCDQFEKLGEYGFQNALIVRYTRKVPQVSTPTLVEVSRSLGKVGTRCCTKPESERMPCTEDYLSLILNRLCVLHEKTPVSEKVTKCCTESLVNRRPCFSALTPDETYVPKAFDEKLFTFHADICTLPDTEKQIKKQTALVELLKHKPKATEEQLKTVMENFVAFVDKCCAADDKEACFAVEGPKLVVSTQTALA
Chain of Induced myeloid leukemia cell differentiation protein Mcl-1 (Q07820 whole entry): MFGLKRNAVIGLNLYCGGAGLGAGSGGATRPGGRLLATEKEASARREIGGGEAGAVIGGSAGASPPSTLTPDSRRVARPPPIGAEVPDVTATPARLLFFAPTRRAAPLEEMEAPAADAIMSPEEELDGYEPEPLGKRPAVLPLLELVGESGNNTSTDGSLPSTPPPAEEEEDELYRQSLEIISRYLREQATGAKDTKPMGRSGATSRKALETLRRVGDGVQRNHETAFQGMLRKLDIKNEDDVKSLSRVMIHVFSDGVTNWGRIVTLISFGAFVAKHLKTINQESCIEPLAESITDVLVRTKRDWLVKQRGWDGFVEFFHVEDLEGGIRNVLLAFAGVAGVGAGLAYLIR

O=C(O)COc1ccccc1/C=N/NC(=O)c1ccc(-c2csc(Nc3ccc(Cl)cc3)n2)cc1
active: IC50 [1] 1.29 µM | IC50 [2] 1.49 µM | IC50 [3] 5.67 µM | IC50 [4] 0.841 µM | IC50 [5] 3.5 µM | IC50 [6] 4.1 µM

CC(C)OC(=O)C1(N(Cc2ccco2)C(=O)c2ccccn2)CCCCC1
inactive: IC50 [7] > 32 µM | EC50 [8] > 20 µM | IC50 [9] > 32 µM | IC50 [10] 15 µM

COc1ccc(NS(=O)(=O)c2ccc3nc(COc4cccc5ccccc45)[nH]c3c2)cc1
inactive: EC50 [11] > 32 µM | EC50 [13] > 32 µM | IC50 [17] > 32 µM | EC50 [18] > 32 µM | IC50 [19] > 32 µM
active: EC50 [12] 6.16 µM | IC50 [14] 2.24 µM | IC50 [15] 1.76 µM | IC50 [16] 1.45 µM

O=C(O)CC(CCc1ccccc1)OC1OC(CO)C(O)C(O)C1O (stereo not given)
inactive: IC50 [25] 50.2 µM | IC50 [28] > 94.1 µM
active: EC50 [20] 59.2 µM | IC50 [21] 23.6 µM | EC50 [22] 57.6 µM | AC50 [23] 0.283 µM | EC50 [24] 33.7 µM | IC50 [26] 69.4 µM | AC50 [27] 30.9 µM | IC50 [29] 1.61 µM | IC50 [30] 57.6 µM
